This is an account of results in ChEMBL document CHEMBL1142090, “Substrate competition studies using whole-cell accumulation assays with the major tripartite multidrug efflux pumps of Escherichia coli” (2007).

The source made the active and inactive calls. The calls are words filed in the database; no cut-off is given here.

In assay [1] the test system is Escherichia coli. Description: Antibacterial activity against Escherichia coli AG102 with marR1 mutation after 24 hrs. Particulars: AG102, 24 h. The class given is functional.
The subject of assay [2] is Escherichia coli. Description: Antibacterial activity against Escherichia coli AG102MB after 24 hrs. The class given is functional.
The subject of assay [3] is Escherichia coli. Briefly: Antibacterial activity against Escherichia coli HNCE4 after 24 hrs. Format: functional. Conditions: HNCE4, 24 h.
The subject of assay [4] is Escherichia coli. Briefly: Increase in [3H]testosterone uptake in Escherichia coli AG102 at 100 uM. The class given is functional, organism-based.
Assay [5] relates to Escherichia coli. Description: Increase in [3H]testosterone uptake in Escherichia coli HNCE4 at 100 uM. Format: functional, organism-based.
In assay [6] the test system is Escherichia coli. Description: Increase in [3H]testosterone uptake in Escherichia coli AG102MB at 100 uM. The class given is functional, organism-based.
Assay [7] relates to Escherichia coli. Description: Effect on modulation in uptake of [3H]progesterone in Escherichia coli HNCE4. Format: functional, organism-based.
For assay [8], the system named is Escherichia coli. Briefly: Effect on modulation in uptake of [3H]progesterone in Escherichia coli AG102MB. Format: functional, organism-based.
Assay [9] concerns Escherichia coli. Briefly: Effect on modulation in uptake of [3H]hydrocortisone in Escherichia coli AG102 with marR1 mutation. The class given is functional, organism-based.
The subject of assay [10] is Escherichia coli. Description: Effect on modulation in uptake of [3H]testosterone in Escherichia coli AG102 with marR1 mutation. Format: functional, organism-based.

Broadly, the MIC is the lowest concentration found to suppress growth. Read a high MIC as weaker potency. In the case of `CC1(C)S[C@@H]2[C@H](NC(=O)[C@H](N)c3ccccc3)C(=O)N2[C@H]1C(=O)O` [AMPICILLIN], the minimum inhibitory concentration (MIC) in the assay with Escherichia coli [1] was 32 µg/mL; in the assay on Escherichia coli [2] it was 16 µg/mL; in the assay with Escherichia coli [3], 16 µg/mL.
In the case of `N#CC(C#N)=NNc1cccc(Cl)c1` [CARBONYL CYANIDE M-CHLOROPHENYLHYDRAZONE], the result in the assay on Escherichia coli [4], with Escherichia coli [5] and with Escherichia coli [6] was Active. Also, the values for the MIC in the assay with Escherichia coli [1], against Escherichia coli [2] and in the assay on Escherichia coli [3] were 128 µM, 32 µM and 16 µM, respectively.
With `O=C(N[C@H](CO)[C@H](O)c1ccc([N+](=O)[O-])cc1)C(Cl)Cl` [CHLORAMPHENICOL], the minimum inhibitory concentration (MIC) with Escherichia coli [1] is 8 µg/mL; against Escherichia coli [2] it was 2 µg/mL; with Escherichia coli [3], more than 128 µg/mL.
In the case of `C[C@H](CCC(=O)O)[C@H]1CC[C@H]2[C@@H]3[C@H](O)C[C@@H]4C[C@H](O)CC[C@]4(C)[C@H]3C[C@H](O)[C@]12C` [CHOLIC ACID], the MIC stood at 16000 µg/mL in the assay with Escherichia coli [1], 4000 µg/mL in the assay on Escherichia coli [2] and 2000 µg/mL against Escherichia coli [3].
With `O=C(O)c1cn(C2CC2)c2cc(N3CCNCC3)c(F)cc2c1=O` [CIPROFLOXACIN], the result in the assay with Escherichia coli [7] and with Escherichia coli [8] was Active. For the same compound, the figures for the minimum inhibitory concentration (MIC) against Escherichia coli [1], in the assay with Escherichia coli [2] and against Escherichia coli [3] were more than 0.25 µg/mL, 0.0625 µg/mL and 0.0625 µg/mL, respectively.
As for `CC[C@H]1OC(=O)[C@H](C)[C@@H](O[C@H]2C[C@@](C)(OC)[C@@H](O)[C@H](C)O2)[C@H](C)[C@@H](O[C@@H]2O[C@H](C)C[C@H](N(C)C)[C@H]2O)[C@](C)(O)C[C@@H](C)[C@@H]2N[C@@H](COCCOC)O[C@H]([C@H]2C)[C@]1(C)O` [DIRITHROMYCIN], the MIC in the assay on Escherichia coli [1] stood at 256 µg/mL; with Escherichia coli [2], 16 µg/mL; against Escherichia coli [3], 16 µg/mL.
As to `CC[C@H]1OC(=O)[C@H](C)[C@@H](O[C@H]2C[C@@](C)(OC)[C@@H](O)[C@H](C)O2)[C@H](C)[C@@H](O[C@@H]2O[C@H](C)C[C@H](N(C)C)[C@H]2O)[C@](C)(O)C[C@@H](C)C(=O)[C@H](C)[C@@H](O)[C@]1(C)O` [ERYTHROMYCIN], the result in the assay on Escherichia coli [7] and with Escherichia coli [8] was Active. In addition, the MIC against Escherichia coli [1] is 128 µg/mL; in the assay with Escherichia coli [2] it was 4 µg/mL; against Escherichia coli [3] it was 8 µg/mL.
Regarding `CC(=O)O[C@H]1C[C@@]2(C)[C@@H](C[C@@H](O)[C@H]3[C@@]4(C)CC[C@@H](O)[C@@H](C)[C@@H]4CC[C@@]32C)/C1=C(\CCC=C(C)C)C(=O)O` [FUSIDIC ACID], the minimal inhibitory concentration (MIC) is more than 512 µg/mL against Escherichia coli [1], 16 µg/mL against Escherichia coli [2] and 128 µg/mL in the assay with Escherichia coli [3].
Regarding `CN(C)c1ccc(C(=C2C=CC(=[N+](C)C)C=C2)c2ccc(N(C)C)cc2)cc1.[Cl-]` [GENTIAN VIOLET], the MIC was determined as 32 µg/mL against Escherichia coli [1], 0.5 µg/mL in the assay with Escherichia coli [2] and 8 µg/mL with Escherichia coli [3].
The corresponding values for `CC[n+]1c(-c2ccccc2)c2cc(N)ccc2c2ccc(N)cc21.[Br-]` [HOMIDIUM BROMIDE] are 256 µg/mL, 4 µg/mL and 32 µg/mL.
For `CO[C@@H]1[C@@H](O[C@@H]2O[C@H](C)[C@@H](O[C@H]3C[C@@](C)(O)[C@@H](OC(=O)CC(C)C)[C@H](C)O3)[C@H](N(C)C)[C@H]2O)[C@@H](CC=O)C[C@@H](C)[C@@H](O)/C=C/C=C/C[C@@H](C)OC(=O)C[C@H]1OC(C)=O` [JOSAMYCIN] the same measures were more than 512 µg/mL, 32 µg/mL and 4 µg/mL.
For `NC[C@H]1O[C@H](O[C@H]2[C@H](O)[C@@H](O[C@H]3O[C@H](CO)[C@@H](O)[C@H](N)[C@H]3O)[C@H](N)C[C@@H]2N)[C@H](O)[C@@H](O)[C@@H]1O` [KANAMYCIN] the same measures were 8 µg/mL, more than 512 µg/mL and more than 512 µg/mL.
Regarding `CO[C@@H]1[C@@H](OC(N)=O)[C@@H](O)[C@H](Oc2ccc3c(O)c(NC(=O)c4ccc(O)c(CC=C(C)C)c4)c(=O)oc3c2C)OC1(C)C` [NOVOBIOCIN], the minimum inhibitory concentration (MIC) in the assay on Escherichia coli [1] came out at 512 µg/mL; in the assay on Escherichia coli [2], 4 µg/mL; against Escherichia coli [3] it was 4 µg/mL.
As to `CO[C@H]1C[C@H](O[C@H]2[C@H](C)[C@@H](O[C@@H]3O[C@H](C)C[C@H](N(C)C)[C@H]3O)[C@@H](C)C[C@@]3(CO3)C(=O)[C@H](C)[C@@H](O)[C@@H](C)[C@@H](C)OC(=O)[C@@H]2C)O[C@@H](C)[C@@H]1O` [OLEANDOMYCIN], the MIC with Escherichia coli [1] was more than 512 µg/mL; against Escherichia coli [2] it was 128 µg/mL; against Escherichia coli [3] it was 256 µg/mL.
The corresponding values for `COC(=O)[C@H]1[C@H]2C[C@@H]3c4[nH]c5cc(OC)ccc5c4CCN3C[C@H]2C[C@@H](OC(=O)c2cc(OC)c(OC)c(OC)c2)[C@@H]1OC` [RESERPINE] are 256 µg/mL, 128 µg/mL and 128 µg/mL.
For `CC[C@H]1OC(=O)[C@H](C)[C@@H](O[C@H]2C[C@@](C)(OC)[C@@H](O)[C@H](C)O2)[C@H](C)[C@@H](O[C@@H]2O[C@H](C)C[C@H](N(C)C)[C@H]2O)[C@](C)(O)C[C@@H](C)/C(=N\OCOCCOC)[C@H](C)[C@@H](O)[C@]1(C)O` [ROXITHROMYCIN] the same measures were 512 µg/mL, 64 µg/mL and 128 µg/mL.
Consider `CCCCCCCCCCCCOS(=O)(=O)[O-].[Na+]` [SODIUM LAURYL SULFATE], for which the outcome in the assay on Escherichia coli [9] and in the assay with Escherichia coli [10] was Active. For the same compound, the minimal inhibitory concentration (MIC) was 1000 µg/mL in the assay on Escherichia coli [1], 62.5 µg/mL in the assay with Escherichia coli [2] and 125 µg/mL against Escherichia coli [3].
Consider `CN(C)[C@@H]1C(O)=C(C(N)=O)C(=O)[C@@]2(O)C(O)=C3C(=O)c4c(O)cccc4[C@@](C)(O)[C@H]3C[C@@H]12` [TETRACYCLINE], for which the MIC against Escherichia coli [1] was 8 µg/mL; with Escherichia coli [2], 2 µg/mL; against Escherichia coli [3] it was 2 µg/mL.
Take `CC[C@H]1OC(=O)C[C@@H](O)[C@H](C)[C@@H](O[C@@H]2O[C@H](C)[C@@H](O[C@H]3C[C@@](C)(O)[C@@H](O)[C@H](C)O3)[C@H](N(C)C)[C@H]2O)[C@@H](CC=O)C[C@@H](C)C(=O)/C=C/C(C)=C/[C@@H]1CO[C@@H]1O[C@H](C)[C@@H](O)[C@@H](OC)[C@H]1OC` [TYLOSIN]: the values for the MIC in the assay on Escherichia coli [1], in the assay on Escherichia coli [2] and with Escherichia coli [3] were more than 512 µg/mL, 128 µg/mL and 64 µg/mL, respectively.
